# Laboratory results as given in patent US4032635A, “Pharmaceutical method for the therapy of immune diseases” (Zaidan Hojin Biseibutsu Kagaku Kenkyu Kai, priority 1975, dated 1977).
# Like-named read-outs stand apart in the source and are kept apart here.
# Experiments:
# [1] = system: carrageenin-induced edema; conditions: 1 mg./mouse; cited from earlier work
# red blood cells = assay: Heat-induced hemolysis of red blood cells / cell membrane stabilization; type: cell-based; conditions: Compound-1 compared with mefenamic acid or indomethacin
# [2] = system: Delayed-Type Hypersensitivity (DTH) to sheep red blood cells (SRBC); assay: Suppression of delayed-type hypersensitivity (SRBC footpad swelling); type: in vivo, mouse; conditions: for suppression of DTH reaction: anti-inflammatory drugs and protease-inhibitors, 1 mg./mouse; for inhibition in vivo at 1 mg: Erythrocyte, 1 mg./mouse i.p.
# Description: The compounds of Formula (I) show suppression of various delayed-type hypersensitivity. In reference to the method by Lagrange [J. Exp. Med. 139, 528 (1974)], 10^8 sheep red blood cells (SRBC) without adjuvant were subcutaneously injected into the mouse hind footpad to immunize the animal. Four days later the animals were challenged by subcutaneous injection of 10^8 SRBC into another footpad. DTH response was measured as the increase in the thickness of footpad 24 hours after the injection of SRBC.
# Varying doses of Compound-1 were administered orally or intraperitoneally either at the time of immunization (day 0) or challenge (day 4).
# In FIG. 1 the ordinate indicates the swelling (× 0.1 mm.) of mice footpads on day 5 and the abscissa indicates the dose of Compound-1 per mouse administered by the oral (right) and intraperitoneal (left) routes. Solid line curve indicates the relationship when Compound-1 was administered on day 0 and the dotted line curve indicates the relationship when given on day 4.
# The compounds were administered intraperitoneally in a dose 1 mg./mouse at the time of immunization (day 0) or challenge (day 4). Table 1 includes the results of humoral antibody response described later.
# [3] = system: humoral and cell-mediated immunities; conditions: cited from earlier work
# [4] = system: nucleic acid and/or protein synthesis; conditions: cited from earlier work
# [5] = system: systemic anaphylactic shock; assay: Suppression of systemic anaphylactic shock (egg albumin); type: in vivo, mice; conditions: for time of death after induction, Mouse No. 1: control 15; for time of death after induction, Animal No. 1: control 16; for time of death after induction, Animal No. 2: control 25; for time of death after induction, Animal No. 3: control 27
# Description: The mice were immunized by a subcutaneous injection of a mixture of 0.1 ml. (100 mcg.) egg albumin and 0.1 ml. Freund's complete adjuvant, and used for experiment four months thereafter. In control mice sensitized in the above manner, the shock symptom emerged after induction by intravenous injection of 100 mcg. egg albumin and most of the animals died from shock within about 40 minutes.
# Table 3A show the suppression effect with Compound -1 when given as a single dose (0.25 or 1.0 mg./mouse, i.p.) at the time of sensitization. […] In the animals receiving the test drug, the time until death after induction was somewhat delayed and most of the animals survived the shock.
# rats = assay: One-month daily administration; type: in vivo; conditions: oral or i.p., daily 12.5, 50 or 200 mg./kg.
# Description: Compound-1 and Compound-2 were given orally or intraperitoneally to rats in daily doses of 12.5, 50 or 200 mg./kg., respectively, for one month.
# [6] = Acute toxicity, intraperitoneal; conditions: mouse, in vivo, ip, mice, read-out: LD50 (approximate)
# Description: Acute toxicological studies were carried out on mice by intraperitoneal administration of the compounds of Formula (I). The approximate LD50 values for representative compounds are given as follows: […]
# [7] = system: passive cutaneous anaphylaxis (PCA); assay: Suppression of passive cutaneous anaphylaxis (PCA); type: in vivo, guinea pigs; conditions: dilution giving a 10 mm. diameter blue zone; for Max. Dilution of Antiserum, Oral: oral 100 mg./kg., control 1060; for Max. Dilution of Antiserum, i.p.: i.p. 50 mg./kg.
# Description: The compounds of Formula (I) are active in suppressing passive cutaneous anaphylaxis (PCA) in guinea pigs. Guinea pigs received intradarmally serial dilutions of antiserum (0.1 ml.), which was obtained from guinea pigs immunized with a mixture of egg albumin and Freund's complete adjuvant. At the time of sensitization with antiserum, the compound of Formula (I) was administered either orally (100 mg./kg.) or intraperitoneally (50 mg./kg.).
# Four hours later the animals were challenged by intravenous injection of a mixture of 5 mg. egg albumin and Evans blue dye. The reaction was measured 30 minutes later by the blue zone which emerged at the point of antiserum injection.
# [8] = system: contact allergy induced by dinitrochlorobenzene (DNCB); assay: Suppression of contact allergy induced by dinitrochlorobenzene (DNCB); type: in vivo, guinea pigs; set-up: key to Skin Lesion Score, Animal No. 1 / Skin Lesion Score, Animal No. 2 / Skin Lesion Score, Animal No. 3: +: slight erythema; ++: marked erythema and slight swelling; +++: marked induration and swelling; conditions: 100 mg./kg. i.p. at 0.5, 24 and 48 hours before challenge; for Skin Lesion Score, Animal No. 1 / Skin Lesion Score, Animal No. 2 / Skin Lesion Score, Animal No. 3: control None +++
# Description: For example, approximately 0.1 ml. of a 10% solution of DNCB in acetone was administered percutaneously on the ear. Fourteen days later animals were skin tested on a shaved flank by topical spotting (about 0.05 ml.) of a 0.1% solution of DNCB in acetone. Skin lesions were evaluated and scored 24 hours later as follows:
# Guinea pigs readily develop contact hypersensitivities of the delayed-type by simple topical application of DNCB.
# [9] = system: primary antibody formation to sheep red blood cells (SRBC), spleen cells; assay: Suppression of primary antibody formation (plaque forming cells, Jerne's method); type: in vivo, mice (ddY-strain); conditions: for inhibition in vivo at 1 mg: Erythrocyte, ip, 96 h, 1 mg./mouse i.p., read-out: Suppression, Plaque Forming Cells (suppression rate of primary antibody formation)
# Description: 10^8 sheep red blood cells (SRBC) were injected intravenously into ddY-strain mice to immunize the animals, when the compounds of Formula (I) were administered intraperitoneally.
# Each compound was administered intraperitoneally in the dosage of 1 mg./mouse.
# [10] = system: experimental allergic encephalomyelitis (EAE); assay: Suppression of experimental allergic encephalomyelitis (EAE); type: in vivo, guinea pigs; conditions: for recurrence of paralysis after discontinuation: after discontinuation of the drug
# Source text: By injecting basic protein (B.P.) the extract from central nervous tissue, together with Freund's complete adjuvant, a typical EAE symptom develops. Guinea pigs show drastic reduction of body weight and development of paralysis about ten days after injection with BP and they finally die within 17 days after the injection of BP.
# [11] = system: primary antibody formation in spleen cell culture; assay: Antibody formation in spleen cell culture in vitro (hemolytic plaque assay); type: cell-based, mice
# Description: Additional experiment to evaluate the effect of Compound-1 on primary antibody formation was made by spleen cell culture in vitro. According to the method described by Mishell and Dutton [J. Exp. Med., 126, 423 (1967)], dissociated spleen cells prepared from normal mice spleens were cultured with SRBC as antigen and at initiation of cultures Compound-1 was added, and then four days later, antibody formation in cultures was determined by Jerne's hemolytic plaque assay.
# [12] = system: experimental allergic encephalomyelitis (EAE); conditions: cited from earlier work
# [13] = system: autoimmune diseases, some infection allergies and dermatological contact allergies, transplantation immunological responses; conditions: in vivo; cited from earlier work
# [14] = 1 mg./mouse i.p. at 0.5 and 5 hours before challenge
# [15] = 96 h, at challenge (day 4), read-out: Suppression, Delayed-Type Hypersensitivity, Administered at Induction (suppression rate)
# [16] = ip, 0 h, at immunization (day 0), read-out: Suppression, Delayed-Type Hypersensitivity, Administered at Immunization (suppression rate)
# [17] = 0.25 mg./mouse i.p. at the time of sensitization
# [18] = 1.0 mg./mouse i.p. at the time of sensitization
# [19] = 10 mg. i.p. once daily, days 3 to 21 after antigen, five animals
compound,measurement,setting,value
Cc1cccc(Nc2ccccc2C(=O)O)c1C [mefenamic acid],suppression of carrageenin-induced edema,[1],strongly suppress carrageenin-induced edema
same,suppression of heat-induced hemolysis of red blood cells,red blood cells,about the same extent
same,suppression of DTH reaction,[2],little suppression of this DTH reaction
Cn1cnc([N+](=O)[O-])c1Sc1ncnc2nc[nH]c12 [azathioprine],dose at which effective / cytotoxicity,[3],effective in general only at near-lethal doses owing to their cytotoxicity
same,inhibition of humoral and cell-mediated immunities,[3],inhibit both humoral and cell-mediated immunities
same,effect on nucleic acid and/or protein synthesis,[4],disrupt nucleic acid and/or protein synthesis
"O=C(Nc1cc(Cl)cc(Cl)c1O)c1ccccc1O [Compound-2, 3',5'-Dichloro-2,2'-dihydroxybenzanilide]","time of death after induction, Mouse No. 1",[5]; [14],10 min
same,"time of death after induction, Mouse No. 2","[5]; 1 mg./mouse i.p. at 0.5 and 5 hours before challenge, control 18",35 min
same,symptoms or abnormality attributable to the drug,rats,no particular symptoms or abnormality attributable to the drug dosage was noted
same,weight gain,rats,normal
same,LD50,[6],2500 mg/kg
same,"Max. Dilution of Antiserum, Oral",[7],736
same,inhibition of the response to DNCB,[8],significant inhibition of the response to DNCB
same,"Skin Lesion Score, Animal No. 1",[8],+
same,"Skin Lesion Score, Animal No. 2",[8],++
same,"Skin Lesion Score, Animal No. 3",[8],++
same,inhibition in vivo at 1 mg,[9],> 75%
same,inhibition in vivo at 1 mg,[2]; [15],> 75%
same,inhibition in vivo at 1 mg,[2]; [16],0 to 25%
"O=C(Nc1cc(Cl)c(O)c(Cl)c1)c1ccccc1O [Compound-1, 3',5'-Dichloro-2,4'-dihydroxybenzanilide]","time of death after induction, Animal No. 1",[5]; [17],18 min
same,"time of death after induction, Animal No. 2",[5]; [17],21 min
same,"time of death after induction, Animal No. 3",[5]; [17],22 min
same,"time of death after induction, Mouse No. 1",[5]; [14],35 min
same,"time of death after induction, Animal No. 1",[5]; [18],22 min
same,"time of death after induction, Animal No. 2",[5]; [18],23 min
same,"time of death after induction, Animal No. 3",[5]; [18],30 min
same,symptoms or abnormality attributable to the drug,rats,no particular symptoms or abnormality attributable to the drug dosage was noted
same,weight gain,rats,normal
same,LD50,[6],2400 mg/kg
same,"Max. Dilution of Antiserum, i.p.",[7]; control 1024,64
same,"Max. Dilution of Antiserum, i.p.",[7]; control 1350,315
same,"Max. Dilution of Antiserum, Oral",[7],548
same,inhibition of the response to DNCB,[8],significant inhibition of the response to DNCB
same,"Skin Lesion Score, Animal No. 1",[8],+
same,"Skin Lesion Score, Animal No. 2",[8],+
same,"Skin Lesion Score, Animal No. 3",[8],++
same,time of paralysis after antigen injection,"[10]; 10 mg. i.p. once daily, days 3 to 21, four of five animals",13 to 16 days
same,animals with paralysis to a certain degree and course of symptoms,[10]; [19],four others showed paralysis to a certain degree at 13-16 days but the symptoms of EAE soon disappeared
same,animals without sign of paralysis,[10]; [19],one gave no sign of the development of paralysis
same,recurrence of paralysis after discontinuation,[10],no more paralytic symptoms recurred
same,recurrence of paralysis after discontinuation,[10]; listed as compound-1,without recrudescence of paralysis after discontinuation of the drug
same,suppressive effect on EAE,[10]; guinea pigs,potent suppressive effect on EAE
same,suppression of heat-induced hemolysis of red blood cells,red blood cells,suppressed the heat-induced hemolysis of red blood cells to about the same extent as did mefenamic acid or indomethacin
same,primary antibody formation in spleen cells of treated mice (FIG. 3),"[9]; 1000, 250, 62.5 and 15.6 mcg./mouse i.p.",apparently suppressed in proportion to increased amounts of Compound-1
same,inhibition in vivo at 1 mg,[9],> 75%
same,inhibition in vivo at 1 mg,[2]; [15],> 75%
same,inhibition in vivo at 1 mg,[2]; [16],0 to 25%
same,"DTH suppression, administered on day 4 (FIG. 1)","[2]; varying doses, oral or i.p., at challenge (day 4)",DTH was suppressed in mice sensitized by footpad inoculation with SRBC
same,"DTH suppression, given at sensitization (day 0) (FIG. 1)","[2]; varying doses, oral or i.p., at sensitization (day 0)",not active when given at the time of sensitization (day 0)
same,cytotoxicity / anti-proliferative effect in vitro,[11]; in vitro,not cytotoxic nor anti-proliferative in vitro
same,number of nucleated cells in culture,[11]; spleen cell culture in vitro,no changes in the number of nucleated cells
same,viable cell count in culture,[11]; spleen cell culture in vitro,no changes in the number of nucleated cells nor in the viable cell count
same,number of plaque forming cells in culture,"[11]; spleen cell culture in vitro, four days",significantly decreased
Sc1ncnc2nc[nH]c12 [6-mercaptopurine],EAE after discontinuation of the drug (known agents),[12]; after discontinuation and following a latent period,the animals often develop paralytic EAE
same,suppression of development of EAE (known agents),[12]; at such high doses as would cause toxicity,can suppress the development of EAE
same,dose at which effective / cytotoxicity,[3],effective in general only at near-lethal doses owing to their cytotoxicity
same,inhibition of humoral and cell-mediated immunities,[3],inhibit both humoral and cell-mediated immunities
same,effect on nucleic acid and/or protein synthesis,[4],disrupt nucleic acid and/or protein synthesis
same,"effectiveness in therapy of autoimmune diseases, allergies, transplantation responses",[13],"effective in the therapy of autoimmune diseases, some infection allergies and dermatological contact allergies"
COc1ccc2c(c1)c(CC(=O)O)c(C)n2C(=O)c1ccc(Cl)cc1 [indomethacin],suppression of carrageenin-induced edema,[1],strongly suppress carrageenin-induced edema
same,suppression of heat-induced hemolysis of red blood cells,red blood cells,about the same extent
same,suppression of DTH reaction,[2],little suppression of this DTH reaction
